The text below walks through data of ChEMBL document CHEMBL1909046, “DrugMatrix in vitro pharmacology data”.

Data set [1] in a line: DRUGMATRIX: Leukotriene, BLT (LTB4) radioligand binding (ligand: [3H]LTB4). As to conditions: u-937; Not Active = under 50% inhibition at 10 µM. It counts as cell membranes, Membrane.
Data set [2] addresses 5-hydroxytryptamine receptor 2B (Homo sapiens, UniProt P41595). It counts as cell membranes, CHO-K1, Membrane. The following applies: for Ki: read-out: Ki.
The nature of data set [3]: DRUGMATRIX: Phosphodiesterase PDE4 enzyme inhibition (substrate: [3H]cAMP + cAMP). The following applies: u-937, Not Active = under 50% inhibition at 10 µM.
The target of data set [4] is T1, Cholecystokinin receptor type A (Homo sapiens, UniProt P32238). Further: in other assays of this panel Not Active means under 50% inhibition at 10 µM.
T1 sequence (P32238 whole entry): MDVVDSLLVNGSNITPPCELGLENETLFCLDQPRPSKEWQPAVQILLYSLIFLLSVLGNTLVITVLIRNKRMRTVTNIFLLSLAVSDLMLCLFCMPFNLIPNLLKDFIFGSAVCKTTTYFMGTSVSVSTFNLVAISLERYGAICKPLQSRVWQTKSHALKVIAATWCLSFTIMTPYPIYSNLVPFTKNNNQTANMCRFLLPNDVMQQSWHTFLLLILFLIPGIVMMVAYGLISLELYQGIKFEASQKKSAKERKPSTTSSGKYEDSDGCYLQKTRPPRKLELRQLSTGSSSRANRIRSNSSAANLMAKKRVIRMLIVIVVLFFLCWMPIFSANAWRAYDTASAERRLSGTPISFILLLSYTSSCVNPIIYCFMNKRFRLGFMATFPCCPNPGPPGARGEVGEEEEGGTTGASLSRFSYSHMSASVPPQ
Format: cell membranes, Membrane. The following applies: 1321-n1.

In data set [5] the target is T2, Cysteinyl leukotriene receptor 1 (Homo sapiens, UniProt Q9Y271). Further: in other assays of this panel Not Active means under 50% inhibition at 10 µM.
T2 sequence (Q9Y271 whole entry): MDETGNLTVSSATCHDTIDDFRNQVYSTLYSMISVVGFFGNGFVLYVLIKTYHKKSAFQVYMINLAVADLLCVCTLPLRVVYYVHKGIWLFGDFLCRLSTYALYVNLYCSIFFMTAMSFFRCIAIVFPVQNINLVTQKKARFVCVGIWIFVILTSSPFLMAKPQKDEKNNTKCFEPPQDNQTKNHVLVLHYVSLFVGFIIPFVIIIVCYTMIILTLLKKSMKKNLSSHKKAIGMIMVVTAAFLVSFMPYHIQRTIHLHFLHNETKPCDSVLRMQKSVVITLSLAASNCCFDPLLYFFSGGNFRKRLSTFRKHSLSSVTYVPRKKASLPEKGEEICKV
It counts as cell membranes, Membrane. As to conditions: cho-k1.

In data set [6] the target is T3, Cytochrome P450 2A6 (Homo sapiens, UniProt P11509). Further: in other assays of this panel Not Active means under 50% inhibition at 10 µM.
T3 sequence (P11509 whole entry): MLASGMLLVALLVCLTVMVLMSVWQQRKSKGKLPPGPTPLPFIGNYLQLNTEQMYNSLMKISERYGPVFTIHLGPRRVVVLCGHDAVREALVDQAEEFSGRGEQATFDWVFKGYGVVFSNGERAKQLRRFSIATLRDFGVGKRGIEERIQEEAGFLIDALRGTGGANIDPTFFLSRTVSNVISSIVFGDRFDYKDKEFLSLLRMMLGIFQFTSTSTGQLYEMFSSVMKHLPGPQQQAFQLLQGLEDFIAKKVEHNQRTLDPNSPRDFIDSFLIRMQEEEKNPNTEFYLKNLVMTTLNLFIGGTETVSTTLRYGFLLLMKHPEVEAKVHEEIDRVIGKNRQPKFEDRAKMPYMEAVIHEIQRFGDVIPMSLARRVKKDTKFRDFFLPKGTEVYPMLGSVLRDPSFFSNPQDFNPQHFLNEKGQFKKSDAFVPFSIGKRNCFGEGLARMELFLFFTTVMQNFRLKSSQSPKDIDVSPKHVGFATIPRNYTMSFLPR
The following applies: bti-tn-5b1-4.

The target of data set [7] is T4, Interstitial collagenase (Homo sapiens, UniProt P03956).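 Further: MMP-1 enzyme inhibition assay using a peptide substrate; in other assays of this panel Not Active means under 50% inhibition at 10 µM.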
T4 sequence (P03956 whole entry): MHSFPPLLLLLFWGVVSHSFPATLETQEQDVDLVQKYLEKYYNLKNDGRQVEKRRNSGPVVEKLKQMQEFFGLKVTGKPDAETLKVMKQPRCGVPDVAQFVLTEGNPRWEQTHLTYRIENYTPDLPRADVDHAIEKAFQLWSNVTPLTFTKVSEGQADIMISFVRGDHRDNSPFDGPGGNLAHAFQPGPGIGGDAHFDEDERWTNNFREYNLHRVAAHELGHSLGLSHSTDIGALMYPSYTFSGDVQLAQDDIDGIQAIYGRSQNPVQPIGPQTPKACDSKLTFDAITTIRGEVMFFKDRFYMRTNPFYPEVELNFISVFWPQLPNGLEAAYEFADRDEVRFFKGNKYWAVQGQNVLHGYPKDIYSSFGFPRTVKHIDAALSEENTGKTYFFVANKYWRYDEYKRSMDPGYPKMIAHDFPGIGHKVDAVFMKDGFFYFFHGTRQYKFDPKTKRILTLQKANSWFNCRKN
Nature of the data set: biochemical. Format: tissue-based, Rheumatoid synovial fibroblasts.

5-hydroxytryptamine receptor 2B, sequence (P41595 whole entry): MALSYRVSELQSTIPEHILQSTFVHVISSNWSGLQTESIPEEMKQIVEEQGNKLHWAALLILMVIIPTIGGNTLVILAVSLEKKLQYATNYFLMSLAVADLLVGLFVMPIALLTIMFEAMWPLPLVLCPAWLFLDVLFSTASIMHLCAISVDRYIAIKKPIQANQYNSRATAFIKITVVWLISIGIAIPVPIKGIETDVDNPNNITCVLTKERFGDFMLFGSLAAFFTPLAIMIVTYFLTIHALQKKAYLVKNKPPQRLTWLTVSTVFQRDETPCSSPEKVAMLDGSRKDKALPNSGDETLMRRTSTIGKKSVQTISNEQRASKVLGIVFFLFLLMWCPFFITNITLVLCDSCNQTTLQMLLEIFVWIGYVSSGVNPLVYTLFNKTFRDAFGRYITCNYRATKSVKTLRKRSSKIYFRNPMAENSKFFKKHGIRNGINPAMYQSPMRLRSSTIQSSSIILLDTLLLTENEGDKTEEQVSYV

For the compound `COC(=O)Nc1nc2cc(C(=O)c3ccc(F)cc3)ccc2[nH]1` [FLUBENDAZOLE], the IC50 result in data set [1], in data set [2] (cho-k1), in data set [3], in data set [4], in data set [5] and in data set [6] was “Not Active” each time. Moreover, the IC50 result in data set [7] was “Not Active”. The Ki result in data set [1], in data set [3] and in data set [6] was “Not Active” throughout.
As for `CC(=O)OCC(=O)[C@@]1(O)CC[C@H]2[C@@H]3CCC4=CC(=O)CC[C@]4(C)[C@@]3(F)[C@@H](O)C[C@@]21C` [FLUDROCORTISONE ACETATE], the half-inhibitory concentration (IC50) result in data set [1], in data set [2] (cho-k1), in data set [3], in data set [4], in data set [5] and in data set [6] was “Not Active” in each case. Also, the IC50 entry in data set [7] was “Not Active”. In addition, the Ki entry in data set [1], in data set [3] and in data set [6] was “Not Active” each time.
Turning to `CCOC(=O)c1ncn2c1CN(C)C(=O)c1cc(F)ccc1-2` [FLUMAZENIL], the IC50 entry in data set [1], in data set [2] (cho-k1), in data set [3], in data set [4], in data set [5] and in data set [6] was “Not Active” throughout. Further, in data set [7], the IC50 result is reported as “Not Active”. Besides, the inhibitory constant (Ki) result in data set [1], in data set [3] and in data set [6] was “Not Active” throughout.
On to `O=C(O)P(=O)(O)O` [FOSCARNET], for which the IC50 entry in data set [1], in data set [2] (cho-k1), in data set [3], in data set [4], in data set [5] and in data set [6] was “Not Active” each time. Besides, the IC50 result in data set [7] is recorded as “Not Active”. The Ki result in data set [1], in data set [3] and in data set [6] was “Not Active” throughout.
As to `Cc1ccc(C)c(OCCCC(C)(C)C(=O)O)c1` [GEMFIBROZIL], the IC50 entry in data set [1], in data set [2] (cho-k1), in data set [3], in data set [4], in data set [5] and in data set [6] was “Not Active” each time. Besides, the IC50 result in data set [7] was “Not Active”. Also, the Ki entry in data set [1], in data set [3] and in data set [6] was “Not Active” each time.
As to `O=c1c(-c2ccc(O)cc2)coc2cc(O)cc(O)c12` [GENISTEIN], the IC50 entry was “Not Active” in data set [1]; “Not Active” in data set [2] (cho-k1); 10900 nM in data set [3] (read-out: IC50); “Not Active” in data set [4]; “Not Active” in data set [5]; “Not Active” in data set [6]. Further, the IC50 result in data set [7] is on record as “Not Active”. In addition, the Ki result in data set [1] and in data set [6] was “Not Active” throughout.
As for `CCC1=C(C)CN(C(=O)NCCc2ccc(S(=O)(=O)NC(=O)N[C@H]3CC[C@H](C)CC3)cc2)C1=O` [GLIMEPIRIDE], the IC50 result in data set [1], in data set [2] (cho-k1), in data set [3], in data set [4], in data set [5] and in data set [6] was “Not Active” each time. Besides, the IC50 result in data set [7] is on record as “Not Active”. The Ki entry in data set [1], in data set [3] and in data set [6] was “Not Active” in each case.
Consider `Nc1cc(-c2ccncc2)c[nH]c1=O` [INAMRINONE], for which the IC50 entry in data set [1], in data set [2] (cho-k1), in data set [3], in data set [4], in data set [5] and in data set [6] was “Not Active” throughout. For the same compound, the IC50 entry in data set [7] is “Not Active”. In addition, the inhibitory constant (Ki) entry in data set [1], in data set [3] and in data set [6] was “Not Active” each time.
As for `CCCCC1=NC2(CCCC2)C(=O)N1Cc1ccc(-c2ccccc2-c2nnn[nH]2)cc1` [IRBESARTAN], the half-maximal inhibitory concentration (IC50) result in data set [1], in data set [2] (cho-k1), in data set [3], in data set [4], in data set [5] and in data set [6] was “Not Active” throughout. Further, in data set [7], the IC50 result is given as “Not Active”. Besides, the Ki entry in data set [1], in data set [3] and in data set [6] was “Not Active” each time.
Turning to `CN1CCC(=C2c3ccccc3CC(=O)c3sccc32)CC1` [KETOTIFEN], the half-inhibitory concentration (IC50) result in data set [1] was “Not Active”; in data set [2] (read-out: IC50), 46 nM; in data set [3], “Not Active”; in data set [4], “Not Active”; in data set [5], “Not Active”; in data set [6], “Not Active”. Also, in data set [7], the IC50 result is recorded as “Not Active”. The inhibitory constant (Ki) result was “Not Active” in data set [1], 29 nM in data set [2], “Not Active” in data set [3] and “Not Active” in data set [6].
With `C[N+](C)(C)C[C@H](O)CC(=O)[O-]` [LEVOCARNITINE], the IC50 result in data set [1], in data set [2] (cho-k1), in data set [3], in data set [4], in data set [5] and in data set [6] was “Not Active” throughout. In addition, in data set [7], the IC50 result is “Not Active”. Also, the Ki entry in data set [1], in data set [3] and in data set [6] was “Not Active” each time.
For the compound `C[C@H]1COc2c(N3CCN(C)CC3)c(F)cc3c(=O)c(C(=O)O)cn1c23.C[C@H]1COc2c(N3CCN(C)CC3)c(F)cc3c(=O)c(C(=O)O)cn1c23.O` [LEVOFLOXACIN], the IC50 result in data set [1], in data set [2] (cho-k1), in data set [3], in data set [4], in data set [5] and in data set [6] was “Not Active” throughout. For the same compound, the IC50 entry in data set [7] is reported as “Not Active”. In addition, the Ki entry in data set [1], in data set [3] and in data set [6] was “Not Active” throughout.
In the case of `CCn1cc(C(=O)O)c(=O)c2cc(F)c(N3CCNC(C)C3)c(F)c21` (stereo unspecified) [LOMEFLOXACIN], the IC50 entry in data set [1], in data set [2] (cho-k1), in data set [3], in data set [4], in data set [5] and in data set [6] was “Not Active” each time. Besides, the half-maximal inhibitory concentration (IC50) result in data set [7] is given as “Not Active”. Further, the Ki entry in data set [1], in data set [3] and in data set [6] was “Not Active” each time.
Regarding `CN1CCCC(CN2c3ccccc3Sc3ccccc32)C1` (stereo unspecified) [MEPAZINE], the IC50 entry in data set [1] was “Not Active”; in data set [2] (read-out: IC50), 514 nM; in data set [3], “Not Active”; in data set [4], “Not Active”; in data set [5] it was “Not Active”; in data set [6], “Not Active”. In addition, in data set [7], the IC50 entry was “Not Active”. Also, the Ki entry was “Not Active” in data set [1], 327 nM in data set [2], “Not Active” in data set [3] and “Not Active” in data set [6].
Consider `Cc1cccc(C)c1NC(=O)C1CCCCN1C` (stereo unspecified) [MEPIVACAINE], for which the 50% inhibitory concentration (IC50) result in data set [1], in data set [2] (cho-k1), in data set [3], in data set [4], in data set [5] and in data set [6] was “Not Active” in each case. Moreover, the IC50 entry in data set [7] is “Not Active”. The Ki entry in data set [1], in data set [3] and in data set [6] was “Not Active” throughout.

Broadly, the IC50 is the concentration needed to halve the response being measured. One may read the Ki as a measure of affinity in units of concentration, obtained from inhibition or displacement.
